From PubChem BioAssay (NCI)
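Cells were grown in 96-well plates and exposed to each compound for 48 hours at five concentrations; endpoints were interpolated linearly between bracketing concentrations, or set to the highest concentration if not reached. TGI denotes the concentration required for complete inhibition of growth.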

What was measured:
Test in all cases: NCI anticancer screen, dose series, 48 h
OVCAR-4 ovarian = system: OVCAR-4 ovarian
PC-3 prostate = system: PC-3 prostate
MOLT-4 leukemia = system: MOLT-4 leukemia
SNB-19 CNS = system: SNB-19 CNS
K-562 leukemia = system: K-562 leukemia
MDA-MB-435 = system: MDA-MB-435
UACC-257 melanoma = system: UACC-257 melanoma
HT29 colon = system: HT29 colon
HCT-15 colon = system: HCT-15 colon
HL-60(TB) leukemia = system: HL-60(TB) leukemia

| SMILES | TGI (OVCAR-4 ovarian) [µM] | TGI (PC-3 prostate) [µM] | TGI (MOLT-4 leukemia) [µM] | TGI (SNB-19 CNS) [µM] | TGI (K-562 leukemia) [µM] | TGI (MDA-MB-435) [µM] | TGI (UACC-257 melanoma) [µM] | TGI (HT29 colon) [µM] | TGI (HCT-15 colon) [µM] | TGI (HL-60(TB) leukemia) [µM] |
| --- | --- | --- | --- | --- | --- | --- | --- | --- | --- | --- |
| Clc1ccc(/C(=C/c2ccccc2)Cn2ccnc2)cc1 | > 100 | 94 | > 100 | > 100 | > 100 | 67.7 | > 100 | > 100 | > 100 | 46.3 |
| O=c1c2c3c(sc2nc2n1N=C(c1ccc(Br)cc1)CS2)CCCC3 | > 100 | > 100 | > 100 | > 100 | > 100 | > 100 | > 100 | > 100 | > 100 | > 100 |
| C[C@H]1[C@H](C)CC[C@]2(C(=O)OC3OC(CO)C(O)C(O)C3O)CC[C@]3(C)C(=CC[C@@H]4[C@@]5(C)C[C@@H](O)[C@@H]6OC(=O)c7cc(O)c(O)c(O)c7-c7c(cc(O)c(O)c7O)C(=O)OC[C@@]6(CO)[C@@H]5CC[C@]43C)[C@H]12 (some centres not stated) | 75.3 | > 100 | > 100 | > 100 | 78.5 | 37.2 | > 100 | > 57.9 | > 100 | > 100 |
| CC1(C)N=C(N)N=C(N)N1c1cccc(Cl)c1 | > 100 | > 100 | – | > 100 | > 100 | > 100 | > 100 | > 100 | > 100 | > 100 |
| NC(=O)c1ccc[n+](C2=C([O-])c3ccccc3C(=O)/C2=N\S(=O)(=O)c2ccccc2)c1 | 18.9 | 30.2 | 81.5 | 29.9 | > 100 | 17.2 | 27.7 | 34 | 95.9 | > 100 |
| COc1ccc(C2C=C(c3ccc(C)cc3)N(c3ccc(OC)cc3[N+](=O)[O-])C3C(=O)OC(=O)C23)c(OC)c1 (configuration not stated) | > 100 | > 100 | 91.6 | > 100 | > 100 | > 100 | > 100 | 86.4 | > 100 | > 100 |
| NC(=O)NN=C1Cc2ccccc2C1 | > 100 | > 100 | > 100 | > 100 | > 100 | > 100 | > 100 | > 100 | > 100 | > 100 |
| NC(=O)C1CCN(Cc2c(Cl)c(Cl)c(CN3CCC(C(N)=O)CC3)c(Cl)c2Cl)CC1 | > 100 | > 100 | > 100 | > 100 | > 100 | > 100 | > 100 | > 100 | > 100 | > 100 |
| Cc1cccc2c1CC(Cc1ccccc1C(=O)O)C2=O (configuration not stated) | > 100 | > 100 | > 100 | > 100 | > 100 | > 100 | > 100 | > 100 | > 100 | > 100 |
| O=c1c2ccc(Cl)cc2oc2c(CNc3ccc(S(=O)(=O)Nc4ncccn4)cc3)cccc12 | > 100 | > 100 | > 100 | > 100 | > 100 | > 100 | > 100 | > 100 | > 100 | > 100 |
| CCOC(=O)N1CCN(c2c(N)nc(C)[nH]c2=O)CC1 | > 100 | > 100 | > 100 | > 100 | > 100 | > 100 | > 100 | > 100 | > 100 | > 100 |
| Cc1cc(S(=O)(=O)N=C2Nc3cccc4cccc(c34)N2)c(S)cc1Cl | > 100 | > 100 | > 100 | > 100 | > 100 | > 100 | > 100 | – | > 100 | > 100 |
| O=C1c2cc3c(cc2CC12Cc1ccc4c(c1C2=O)CCC4)CCC3 (configuration not stated) | > 100 | > 100 | > 100 | > 100 | > 100 | > 100 | > 100 | > 100 | > 100 | > 100 |
| CCN(CC)C(=S)N/N=C(/c1ccccc1)c1ccccn1 | 23.8 | > 100 | > 100 | > 100 | > 100 | > 47.3 | 2.56 | > 40.1 | > 36.9 | 1.59 |
| COc1ccc2c(c1OC)C(=O)N1C2=Cc2c(cc3c(c2OC)OCO3)CC1N(C)C (configuration not stated) | > 100 | > 100 | > 100 | > 100 | > 100 | > 100 | > 100 | – | > 100 | 80.1 |
| CO[P@@]1(=O)O[C@@H](c2ccccc2)[C@H](O)[C@]1(O)c1ccccc1 | > 100 | > 100 | > 100 | > 100 | > 100 | > 100 | > 100 | > 100 | > 100 | > 100 |
| C/C(=C\CSCC(N)C(=O)O)CC/C=C(\C)CNc1ccccc1 (configuration not stated) | > 100 | > 100 | > 100 | > 100 | > 100 | > 100 | > 100 | > 100 | > 100 | > 100 |
| CCOC(=O)/C=C/CCC(C)(C)COC(C)=O | > 10 | > 10 | > 10 | > 10 | > 10 | > 10 | > 10 | > 10 | > 10 | > 10 |
| CC1=C(C)SC(=C2Sc3c(n(C)c(=O)n(C)c3=O)S2)S1 | 58.3 | > 100 | > 100 | > 100 | > 100 | > 100 | > 100 | > 100 | > 100 | > 100 |
| CC1(C)OCC(C2OC(C)(C)OC2[C@H]2O[C@@]3(O)[C@H]4[C@H](C=CC[C@@H]42)[C@@H](OCc2ccccc2)[C@H](OCc2ccccc2)[C@H]3OCc2ccccc2)O1 (some centres not stated) | > 100 | > 100 | 44.3 | > 100 | > 100 | > 100 | > 100 | 71.3 | > 100 | 42.4 |
| CN(C)CCNCCCNc1c2ccccc2nc2cccc([N+](=O)[O-])c12 | 0.0208 | 0.0609 | < 0.0192 | 0.177 | < 0.0184 | 0.0313 | 0.525 | < 0.0277 | 0.569 | 0.0247 |
